Patent US7547690B2, “Compounds for the treatment of Hepatitis C” (Bristol-Myers Squibb Company, priority 2007, dated 2009)
Like-named read-outs stand apart in the source and are kept apart here.

Key:
HCV replicon cells = assay: HCV replicon FRET / luciferase assay; format: cell-based; details: 50% reduction in FRET or luciferase activity in HCV replicon cells, read-out: EC50
Method: FRET Assay Preparation. The HCV FRET screening assay was performed in 96-well cell culture plates. The FRET peptide (Anaspec, Inc.) (Taliani et al., Anal. Biochem. 1996, 240, 60-67) contains a fluorescence donor, EDANS, near one end of the peptide and an acceptor, DABCYL, near the other end. The fluorescence of the peptide is quenched by […] resonance energy transfer (RET) between the donor and the acceptor, but as the NS3 protease cleaves the peptide the products are released from RET quenching and the fluorescence of the donor becomes apparent. The assay reagent was made as follows: 5× cell Luciferase cell culture lysis reagent from Promega (#E153A) diluted to 1× with dH2O, NaCl added to 150 mM final, the FRET peptide diluted to 20 μM final from a 2 mM stock.
To prepare plates, HCV replicon cells, with or without a Renilla luciferase reporter gene, were trypsinized and plated in a 96-well plate with titrated test compounds added in columns 3 through 12; columns 1 and 2 contained a control compound (HCV control inhibitor), and the bottom row contained cells with DMSO only. The plates were then placed in a CO2 incubator at 37° C.
Assays. Subsequent to addition of the test compounds described above (FRET Assay Preparation), at various times the plate was removed and Alamar blue solution (Trek Diagnostics, #00-100) was added to measure cellular toxicity. After reading in a Cytoflour 4000 instrument (PE Biosystems), plates were rinsed with PBS and then used for FRET assay by the addition of 30 ul of the FRET peptide assay reagent described above (FRET Assay Preparation) per well. The plate was then placed into the Cytoflour 4000 instrument which had been set to 340 excite/490 emission, automatic mode for up to 20 cycles and the plate read in a kinetic mode. Typically, the signal to noise using an endpoint analysis after the reads was at least three-fold. Alternatively, after Alamar blue reading, plates were rinsed with PBS, then used for luciferase assay using the Promega Dual-Glo Luciferase Assay System or the Promega EnduRen Live Cell Substrate assay.
Compound analysis was performed by quantification of the relative HCV replicon inhibition and the relative cytotoxicity values. To calculate cytoxicity values, the average Alamar Blue fluorescence signals from the control wells were set as 100% non-toxic. The individual signals in each of the compound test wells were then divided by the average control signal and multiplied by 100% to determine […]. To calculate the HCV replicon inhibition values, an average background value was obtained from the two wells containing the highest amount of HCV control inhibitor at the end of the assay period. These numbers were similar to those obtained from naïve Huh-7 cells. The background numbers were then subtracted from the average signal obtained from the control wells and this number was used as 100% activity. The individual signals in each of the compound test wells were then divided by the averaged control values after background subtraction and multiplied by 100% to determine percent activity. EC50 values were calculated as the concentration which caused a 50% reduction in FRET or luciferase activity. The two numbers generated for the compound plate, percent cytoxicity and percent activity, were used to determine compounds of interest for further analysis.

HCV NS5B = biological target: T1, HCV NS5B (Hepatitis C virus genotype 1b, UniProt Q9WMX2); assay: HCV NS5B RdRp enzyme assay (standard / modified); format: biochemical; details: HCV RdRp genotype 1b; standard or modified assay not specified; read-out: IC50
T1 construct: The protein was expressed with an 18 amino acid C-terminal truncation to enhance the solubility; made in house; host or cells: E. coli BL21(DE3)
Method: HCV NS5B RdRp cloning, expression, and purification. The cDNA encoding the NS5B protein of HCV, genotype 1b, was cloned into the pET21a expression vector. The protein was expressed with an 18 amino acid C-terminal truncation to enhance the solubility. The E. coli competent cell line BL21(DE3) was used for expression of the protein. Cultures were grown at 37° C. for ˜4 hours until the cultures reached an optical density of 2.0 at 600 nm. The cultures were cooled to 20° C. and induced with 1 mM IPTG. Fresh ampicillin was added to a final concentration of 50 μg/ml and the cells were grown overnight at 20° C.
Cell pellets (3 L) were lysed for purification to yield 15-24 mgs of purified NS5B. The lysis buffer consisted of 20 mM Tris-HCl, pH 7.4, 500 mM NaCl, 0.5% triton X-100, 1 mM DTT, 1 mM EDTA, 20% glycerol, 0.5 mg/ml lysozyme, 10 mM MgCl2, 15 ug/ml deoxyribonuclease I, and Complete TM protease inhibitor tablets (Roche). After addition of the lysis buffer, frozen cell pellets were resuspended using a tissue homogenizer. To reduce the viscosity of the sample, aliquots of the lysate were sonicated on ice using a microtip attached to a Branson sonicator. The sonicated lysate was centrifuged at 100,000×g for 1 hr at 4° C. and filtered through a 0.2 μm filter unit (Corning).
The protein was purified using two sequential chromatography steps: Heparin sepharose CL-6B and polyU sepharose 4B (Pharmacia). The chromatography buffers were identical to the lysis buffer but contained no lysozyme, deoxyribonuclease I, MgCl2 or protease inhibitor and the NaCl concentration of the buffer was adjusted according to the requirements for charging the protein onto the column. Each column was eluted with a NaCl gradient which varied in length from 5-50 column volumes depending on the column type. After the final chromatography step, the resulting purity of the enzyme is >90% based on SDS-PAGE analysis. The enzyme was aliquoted and stored at −80° C.
Standard HCV NS5B RdRp enzyme assay. HCV RdRp genotype 1b assays were run in a final volume of 60 μl in 96 well plates (Corning 3600). The assay buffer is composed of 20 mM Hepes, pH 7.5, 2.5 mM KCl, 2.5 mM MgCl2, 1 mM DTT, 1.6 U RNAse inhibitor (Promega N2515), 0.01 mg/ml BSA (Sigma B6917), and 2% glycerol. All compounds were serially diluted (3-fold) in DMSO and diluted further in water such that the final concentration of DMSO in the assay was 2%. HCV RdRp genotype 1b enzyme was used at a final concentration of 28 nM. A polyA template was used at 6 nM, and a biotinylated oligo-dT12 primer was used at 180 nM final concentration. Template was obtained commercially (Amersham 27-4110). Biotinylated primer was prepared by Sigma Genosys. 3H-UTP was used at 0.6 μCi (0.29 μM total UTP). Reactions were initiated by the addition of enzyme, incubated at 30 ° C. for 60 min, and stopped by adding 25 μl of 50 mM EDTA containing SPA beads (4 μg/μl, Amersham RPNQ 0007). Plates were read on a Packard Top Count NXT after >1 hr incubation at room temperature.
Modified HCV NS5B RdRp enzyme assay. A modified enzyme assay was performed essentially as described for the standard enzyme assay except for the following: The biotinylated oligo dT12 primer was precaptured on streptavidin-coated SPA beads by mixing primer and beads in assay buffer and incubating at room temperature for one hour. Unbound primer was removed after centrifugation. The primer-bound beads were resuspended in 20 mM Hepes buffer, pH 7.5 and used in the assay at final concentrations of 20 nM primer and 0.67 μg/μl beads. Order of addition in the assay: enzyme (1.75 nM) was added to diluted compound followed by the addition of a mixture of template (0.36 nM), 3H-UTP (0.6 μCi, 0.29 μM), and primer-bound beads, to initiate the reaction; concentrations given are final. Reactions were allowed to proceed for 4 hours at 30° C.
IC50 values for compounds were determined using seven different [I]. […]

T1 sequence (Q9WMX2 2420-2992): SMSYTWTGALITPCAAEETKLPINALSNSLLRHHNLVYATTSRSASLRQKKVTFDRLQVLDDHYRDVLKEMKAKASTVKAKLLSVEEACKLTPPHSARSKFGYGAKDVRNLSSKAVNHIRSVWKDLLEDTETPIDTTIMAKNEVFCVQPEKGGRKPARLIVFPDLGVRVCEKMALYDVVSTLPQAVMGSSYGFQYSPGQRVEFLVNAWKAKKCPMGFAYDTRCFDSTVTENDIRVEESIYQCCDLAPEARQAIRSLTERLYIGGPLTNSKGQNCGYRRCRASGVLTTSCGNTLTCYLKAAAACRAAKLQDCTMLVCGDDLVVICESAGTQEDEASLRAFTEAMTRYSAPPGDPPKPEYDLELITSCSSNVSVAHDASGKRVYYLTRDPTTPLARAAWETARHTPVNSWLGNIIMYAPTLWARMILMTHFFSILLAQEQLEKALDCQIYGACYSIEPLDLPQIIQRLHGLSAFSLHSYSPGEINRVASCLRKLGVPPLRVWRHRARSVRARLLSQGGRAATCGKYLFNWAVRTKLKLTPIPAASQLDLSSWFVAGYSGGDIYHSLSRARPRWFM

Row | Structure (SMILES) | EC50 (HCV replicon cells; Hepatitis C virus) | IC50 (HCV NS5B) | EC50 (HCV replicon cells)
1 | CCN1C[C@H]2C[C@@H]1CN2C(=O)C12CC1c1cc(OC)ccc1-c1c(C3CCCCC3)c3ccc(C(=O)NS(=O)(=O)N(C)C)cc3n1C2 (some centres unmarked) | 0.0024 to 0.5 µM | 0.0024 to 0.5 µM | 
2 | COc1ccc2c(c1)C1CC1(C(=O)N1C[C@@H]3C[C@H]1CN3C(=O)OC(C)(C)C)Cn1c-2c(C2CCCCC2)c2ccc(C(=O)NS(=O)(=O)N(C)C)cc21 (some centres unmarked) | 0.0024 to 0.5 µM | 0.0024 to 0.5 µM | 
3 | COc1ccc2c(c1)C1CC1(C(=O)N1C[C@@H]3C[C@H]1CN3)Cn1c-2c(C2CCCCC2)c2ccc(C(=O)NS(=O)(=O)C3CC3)cc21 (some centres unmarked) |  | 0.0024 to 0.5 µM | 
4 | COc1ccc2c(c1)C1CC1(C(=O)N1C[C@H]3C[C@@H]1CN3C(=O)OC(C)(C)C)Cn1c-2c(C2CCCCC2)c2ccc(C(=O)NS(=O)(=O)N(C)C)cc21 (some centres unmarked) |  | 0.0024 to 0.5 µM | 
5 | COc1ccc2c(c1)C1CC1(C(=O)N1C[C@H]3C[C@@H]1CN3CC(C)C)Cn1c-2c(C2CCCCC2)c2ccc(C(=O)NS(=O)(=O)N(C)C)cc21 (some centres unmarked) | 0.0024 to 0.5 µM | 0.0024 to 0.5 µM | 
6 | COc1ccc2c(c1)C1CC1(C(=O)N1C3CC1CN(C)C3)Cn1c-2c(C2CCCCC2)c2ccc(C(=O)NS(=O)(=O)N3CCN(C)CC3)cc21 (centres unmarked) | 0.0024 to 0.5 µM | 0.0024 to 0.5 µM | 
7 | COc1ccc2c(c1)C1CC1(NC(=O)N1CC3CN(Cc4ccccc4)CC(C1)N3Cc1ccccc1)Cn1c-2c(C2CCCCC2)c2ccc(C(=O)NS(=O)(=O)N(C)C)cc21 (centres unmarked) |  | 0.5 to 5 µM | 
8 | CCN(C)S(=O)(=O)NC(=O)c1ccc2c(C3CCCCC3)c3n(c2c1)CC1(C(=O)N2C4CC2CN(C)C4)CC1c1cc(OC)ccc1-3 (centres unmarked) | 0.0024 to 0.5 µM | 0.0024 to 0.5 µM | 
9 | CCN(CC)S(=O)(=O)NC(=O)c1ccc2c(C3CCCCC3)c3n(c2c1)CC1(C(=O)N2C4CC2CN(C)C4)CC1c1cc(OC)ccc1-3 (centres unmarked) | 0.0024 to 0.5 µM | 0.0024 to 0.5 µM | 
10 | COc1ccc2c(c1)C1CC1(C(=O)N1CCN3CCC1CC3)Cn1c-2c(C2CCCCC2)c2ccc(C(=O)NS(=O)(=O)N3CCC3)cc21 (centres unmarked) | 0.0024 to 0.5 µM | 0.0024 to 0.5 µM | 
11 | COc1ccc2c(c1)C1CC1(C(=O)N1C3CC1CN(C)C3)Cn1c-2c(C2CCCCC2)c2ccc(C(=O)NS(=O)(=O)N3CCOCC3)cc21 (centres unmarked) | 0.0024 to 0.5 µM | 0.0024 to 0.5 µM | 
12 | COc1ccc2c(c1)C1CC1(C(=O)N1C[C@H]3C[C@@H]1CN3CC(C)C)Cn1c-2c(C2CCCCC2)c2ccc(C(=O)NS(=O)(=O)C3CC3)cc21 (some centres unmarked) | 0.0024 to 0.5 µM | 0.0024 to 0.5 µM | 
13 | COc1ccc2c(c1)C1CC1(C(=O)N1CC3CN(C)CC(C1)N3)Cn1c-2c(C2CCCCC2)c2ccc(C(=O)NS(=O)(=O)N(C)C)cc21 (centres unmarked) | 0.0024 to 0.5 µM | 0.0024 to 0.5 µM | 
14 | COc1ccc2c(c1)C1CC1(C(=O)N1CC3(C)CN(C)CC(C)(C1)C3)Cn1c-2c(C2CCCCC2)c2ccc(C(=O)NS(=O)(=O)N(C)C)cc21 (centres unmarked) | 0.0024 to 0.5 µM | 0.0024 to 0.5 µM | 
15 | COc1ccc2c(c1)C1CC1(C(=O)N1CC3(C)CN(C)CC(C)(C1)C3)Cn1c-2c(C2CCCCC2)c2ccc(C(=O)NS(C)(=O)=O)cc21 (centres unmarked) | 0.0024 to 0.5 µM | 0.0024 to 0.5 µM | 
16 | COc1ccc2c(c1)C1CC1(S(=O)(=O)N1C3CC1CN(C)C3)Cn1c-2c(C2CCCCC2)c2ccc(C(=O)NS(=O)(=O)C3CC3)cc21 (centres unmarked) | 0.0024 to 0.5 µM | 0.0024 to 0.5 µM | 
17 | COc1ccc2c(c1)C1CC1(S(=O)(=O)N1C3CC1CN(C)C3)Cn1c-2c(C2CCCCC2)c2ccc(C(=O)NS(=O)(=O)N3CCOCC3)cc21 (centres unmarked) | 0.0024 to 0.5 µM | 0.0024 to 0.5 µM | 
18 | COc1ccc2c(c1)C1CC1(C(=O)N1C3CC1CN(C)C3)Cn1c-2c(C2CCCCC2)c2ccc(C(=O)NS(=O)(=O)C(C)C)cc21 (centres unmarked) | 0.0024 to 0.5 µM | 0.0024 to 0.5 µM | 
19 | COc1ccc2c(c1)C1CC1(C(=O)N1CC3CN(Cc4ccccc4)CC(C1)N3Cc1ccccc1)Cn1c-2c(C2CCCCC2)c2ccc(C(=O)NS(=O)(=O)N(C)C)cc21 (centres unmarked) | 0.5 to 5 µM | 0.0024 to 0.5 µM | 
20 | COc1ccc2c(c1)[C@@H]1C[C@]1(C(=O)N1CC3CC(C1)N3C)Cn1c-2c(C2CCCCC2)c2ccc(C(=O)NS(=O)(=O)N(C)C)cc21 | 0.0024 to 0.5 µM | 0.0024 to 0.5 µM | 
21 | COc1ccc2c(c1)C1CC1(C(=O)N1C3CNCC1CN(C)C3)Cn1c-2c(C2CCCCC2)c2ccc(C(=O)NS(=O)(=O)N(C)C)cc21 (centres unmarked) |  | 0.0024 to 0.5 µM | 
22 | CCC(C)S(=O)(=O)NC(=O)c1ccc2c(C3CCCCC3)c3n(c2c1)CC1(C(=O)N2C4COCC2CN(C)C4)CC1c1cc(OC)ccc1-3 (centres unmarked) |  | 0.0024 to 0.5 µM | 
23 | COc1ccc2c(c1)[C@@H]1C[C@]1(C(=O)N1CC3CCC1CN3C)Cn1c-2c(C2CCCCC2)c2ccc(C(=O)NS(=O)(=O)C(C)C)cc21 (some centres unmarked) [drawing 128] | 0.0024 to 0.5 µM |  | 
24 | COc1ccc2c(c1)[C@@H]1C[C@]1(C(=O)N1CC3CCC1CN3C)Cn1c-2c(C2CCCCC2)c2ccc(C(=O)NS(=O)(=O)C(C)C)cc21 (some centres unmarked) [drawing 129] |  |  | 0.0024 to 0.5 µM
